Details: rat; liver microsomes; pH 7.4; 15.0 min; 1.0 µM

Row | Structure (SMILES) | half-life [min]
1 | O=C(Nc1nc(-c2ccccc2)cs1)c1ccncc1NS(=O)(=O)c1ccc(Cl)cc1 | 18.2
2 | O=S(=O)(Nc1cccc2ccncc12)c1ccc(NCc2cccc(Cl)c2O)cc1 | 9.9
3 | O=C(Cc1ccc(Cl)c(Cl)c1)Nc1ccc(S(=O)(=O)Nc2ccon2)cc1 | > 30
4 | OC(CCN1CCCCC1)c1ccc(-c2ccccc2)cc1 (stereo not given) | 4.73
5 | COC(=O)C1=C(C)NC(C)=C(C(=O)OCCCN2CCC(c3ccccc3)(c3ccccc3)CC2)C1c1cccc([N+](=O)[O-])c1 (stereo not given) | 5.13
6 | COC(=O)c1ccc([C@H]2c3[nH]c4ccccc4c3C[C@H](C(=O)OC)N2C(=O)CCl)cc1 | 4.02
7 | CCCN1C(CC(C)C)=NS(=O)(=O)c2cc(NC(=O)c3cccs3)ccc21 | 4.56
8 | CCN1CCN(c2ncc3c(n2)CCN(Cc2cc(Br)cs2)C3)CC1 | 2.7
9 | O=[S+]([O-])(Nc1ccc(C2CCNCC2)cc1)c1ccc(NCc2ccc(Cl)cc2O)cc1 | > 30
10 | O=c1cc(CSc2ccc(Cl)cc2)nc(-c2ccccn2)[nH]1 | 1.52
11 | Cc1cc(-c2nnc3n2CCCCC3)c(C)n1-c1ccc(C#N)cc1 | 3.6
12 | CC(C)c1ccc2oc3nc(N)c(C(=O)O)cc3c(=O)c2c1 | > 30
13 | COc1cccc(C(=O)Nc2cccc(OCc3cc(=O)n4cccc(C)c4n3)c2)c1 | 3.17
14 | O=S(=O)(Nc1ccccc1)c1ccc(NCc2cccc(Cl)c2O)cc1 | 2.2
15 | O=C(NCCc1ccccc1)C1CCN(c2nc(-c3ccc(Br)cc3)cs2)CC1 | 1.71
16 | COc1cccc(C(=O)Nc2nnc(S(=O)(=O)N3CCOCC3)s2)c1 | > 30
17 | CN(C)CCCN1c2ccc(O)cc2Sc2ccc(Cl)cc21 | 10.7
18 | Cc1noc(C)c1[S+](=O)([O-])N1CCC2(CC1)CC(c1cccc(C(F)(F)F)c1)=NO2 | 24.8
19 | Cc1ccc(S(=O)(=O)NCC(=O)Nc2nc(-c3ccccc3)cs2)cc1 | 2.1
20 | COc1ccc(Nc2nc(-c3ccncc3)nc3ccccc23)cc1F | 9.7
21 | COc1ccc(-n2nc(C3CCN(C(=O)Cc4ccc(F)cc4)CC3)[nH]c2=O)cc1 | 7.87
22 | Cc1cc(-c2nnc3n2CCCCC3)c(C)n1-c1cccc2ccccc12 | 2.1
23 | Fc1cnc(-c2ccccc2C(F)F)nc1NCc1ccc(-c2cccnc2)cc1 | 7.1
24 | O=C(Cc1ccc(Cl)cc1)Nc1cnccc1C(=O)O | > 30
25 | Cc1cccc([C@H]2[C@@H]3C=CC[C@@H](C)[C@@H]3C(=O)N2Cc2ccccc2)c1 | 1.4

Row | Structure (SMILES) | half-life [min]
26 | C/C=C1/CN2CC[C@@]34c5ccccc5N(C)[C@@H]3[C@@H]2C[C@@H]1[C@H]4C(=O)OC | 4.13
27 | O=C(Nc1ccc(-c2ccccc2)cc1)[C@H](Cc1ccc(O[S+](=O)([O-])c2cccc3cnccc23)cc1)N[S+](=O)([O-])c1cccc2cnccc12 | 3.1
28 | Nc1nc2c(s1)C(c1ccccc1OCc1ccccc1Cl)CC(=O)N2 (stereo not given) | 6.28
29 | COCCNc1ncc(-c2cccc(O)c2)c2c1OCC2 | 8.62
30 | C[S+](=O)([O-])N1CCC(Cn2ccc3c(N4CCOCC4)nc(-c4cccc5[nH]ccc45)cc32)CC1 | 15.9
31 | COc1cccc(CN(C)c2ccc([S+](=O)([O-])Nc3nccs3)cc2)c1O | > 30
32 | CCOc1ccc(CCNC(=O)c2cc3sccc3n2CCN2CCN(C)CC2)cc1OCC | 6.2
33 | C/C(=N\NC(N)=S)C1=CCC2C3CC[C@H]4CC(O)CC[C@]4(C)C3CC[C@]12C (stereo not given in full) | > 30
34 | CC1=C(C(=O)NCc2ccccc2)C(c2ccccc2Br)N=C(Nc2nc3ccccc3o2)N1 (stereo not given) | 7
35 | COc1ccc(-c2nc3ccccc3c(=O)n2Cc2ccco2)cc1COc1ccc(NC(C)=O)cc1 | 2.17
36 | O=[S+]([O-])(Nc1ccccc1)c1ccc(NCc2cccc(Cl)c2F)cc1 | 4.5
37 | COc1cccc(-c2csc(N3CCC(C(N)=O)CC3)n2)c1 | 1.33
38 | COc1ccc(-n2nc(C3CCN([S+](=O)([O-])c4c(C)noc4C)CC3)[nH]c2=O)cc1 | 22.9
39 | CC(C)Oc1ccc(-c2ccc(=O)n(CC(=O)NCCc3ccccc3)n2)cc1 | 1.6
40 | CC(C)CN(CC(=O)N(CCCN1CCCC1=O)CC(N)=O)C(=O)CNCCc1ccccc1F | > 30
41 | CS(=O)(=O)c1ccc2nc(NC(=O)C3CC3)sc2c1 | > 30
42 | CC(C)CNc1ccnc(NCc2csc(-c3ccccc3)n2)n1 | 2.07
43 | COc1ccc(-c2ccc3nc(-c4cc(C)cc(C)c4)oc3c2)c(OC)c1OC | > 30
44 | COc1ccc(OCc2ccc(-c3nc(C#N)c(NC(C)c4ccccc4)o3)o2)cc1 (stereo not given) | 4.14
45 | Fc1ccc(Nc2nc(-c3ccccc3)nc3ccccc23)cc1F | > 30
46 | Cc1cccc(Nc2nc(NCc3ccco3)c3ccccc3n2)c1 | 3.54
47 | CCOc1ccc(CCNC(=O)c2cc3ccccc3n2Cc2cc(C)cc(C)n2)cc1OCC | 1.7
48 | COc1ccc(-c2ccc3ncc4c(c3c2)n(-c2ccc(N3CCNCC3)c(C(F)(F)F)c2)c(=O)n4C)cn1 | > 30
49 | O=S(=O)(Nc1nccs1)c1ccc(NCc2ccccc2O)cc1 | 24
50 | CC(C)COc1ccc(-c2csc(N3CCC(C(N)=O)CC3)n2)cc1 | 7.23

Row | Structure (SMILES) | half-life [min]
51 | CN(C)c1cc(-c2nc(Nc3ccc(F)c(F)c3)c3ccccc3n2)ccn1 | 13
52 | O=C(c1ccc2ccccc2c1)N1CCN(c2ccc(O)cc2)CC1 | > 30
53 | CC[C@H](NC(=O)[C@H](C)NC)C(=O)N1C[C@@H](O)C[C@H]1Cc1c(-c2[nH]c3cc(F)ccc3c2C[C@H]2C[C@H](O)CN2C(=O)[C@H](CC)NC(=O)[C@H](C)NC)[nH]c2cc(F)ccc12 | > 30
54 | CCCS(=O)(=O)c1nc(NC2CC2)cc(-c2ccc3c(ccn3C3CC(C)(C)NC(C)(C)C3)c2)n1 | > 30
55 | Cc1ccc(S(=O)(=O)Nc2cnccc2C(=O)Nc2nc3ccccc3s2)cc1 | 4.1
56 | Cc1ccc(NC(=O)c2cc(-c3ccc(C)o3)nc3ccccc23)nc1 | 8.3
57 | CCc1ccc(NC(=O)c2cc3ncccn3n2)cc1 | 2.8
58 | O=C1CCCC2=C1C(c1[nH]ncc1Cl)N=C(Nc1nc3cc([S+](=O)([O-])N4CCCC4)ccc3o1)N2 (stereo not given) | 8
59 | Cc1ccc2c(c1)[nH]c1c(N3CCN(Cc4ccccc4)CC3)ncnc12 | 7.49
60 | Cc1cc(-c2nnc3n2CCCCC3)c(C)n1-c1ccc(Br)cc1 | 2.2
61 | CC(C)NC(=O)c1nc(-c2ccc(Cl)nc2)c2cnccn12 | > 30
62 | NC(=O)C(=O)N/N=C/c1ccc([N+](=O)[O-])o1 | > 30
63 | COc1ccc(NC(=O)C23CC4CC(CC(C4)C2)C3)cc1[S+](=O)([O-])Nc1ccc(Br)cc1 | 5
64 | O=C(Cc1nc2ccc(Cl)cc2[nH]1)Nc1ccc(S(=O)(=O)Nc2nccs2)cc1 | > 30
65 | COc1ccc(NC(=O)c2[nH]c(C)c(C(C)=O)c2C)cc1S(=O)(=O)Nc1cccc(C#N)c1 | 15
66 | Cc1ccccc1C(=O)N1CCc2cc(-c3nc(NC(=O)Cc4ccc5ccccc5c4)sc3C)ccc21 | > 30
67 | Cc1ccc(NC(=O)N(Cc2cn(C)c3ccccc23)C2CCCCC2)cc1C | 1.95
68 | Cc1ccc2oc(NC3=NC4(CCCC4)C4=C(CCCC4=O)N3)nc2c1 | 2.7
69 | Oc1ccc(NCc2ccccc2OCc2ccccc2Cl)cc1 | 2.03
70 | COc1ccc(S(=O)(=O)N2CCCCCC2)cc1NC(=O)Cc1n[nH]c(=O)c2ccccc12 | 2.9
71 | NC(=O)C1CCN(c2nc(-c3cccc4sc5ccccc5c34)cs2)CC1 | > 30
72 | COc1ccc(OC)c(CNc2ncnc3onc(C)c23)c1 | 5.68
73 | COc1ccc(OCCN2CCN(C(=O)c3ccc(OC)cc3)CC2)cc1 | > 30
74 | CCCc1ccc(C(=O)NC(=O)c2ccccc2O)cc1 | 2.37
75 | COc1cccc(CNc2ccc(S(=O)(=O)Nc3ccccc3)cc2)c1O | 6.7

Row | Structure (SMILES) | half-life [min]
76 | CNC(=O)c1cc(Oc2ccc(NC(=O)Nc3cc(C(C)(C)C)nn3-c3ccc4ncccc4c3)c(F)c2)ccn1 | 6.64
77 | O=C(Nc1ncc(Cc2ccc(C(F)(F)F)cc2)s1)c1ccc(-c2cccnc2)o1 | > 30
78 | Fc1cc(-c2nc(Nc3ccc(F)c(F)c3)c3ccccc3n2)ccn1 | > 30
79 | O=C(NCCCN1CCCC1=O)c1ccc(-c2ncc3cnc(-c4ccccc4)cn23)cc1 | > 30
80 | O=c1cc(-c2nc(Nc3ccc(F)c(F)c3)c3ccccc3n2)cc[nH]1 | > 30
81 | CCc1cccc(CC)c1-n1c(C=C(C)C)c(C(=O)N2CCNCC2)cc(-c2nc(-c3ccc(C(F)(F)F)cc3)cs2)c1=O | > 30
82 | Cc1nc(N)nc2ccccc12 | > 30
83 | O=C(Nc1ccc(C(=O)Nc2nccs2)cc1)c1ccc2ccccc2c1 | 23
84 | Cc1ccc(S(=O)(=O)Nc2cccc(C(=O)Nc3nc(-c4ccccc4)cs3)c2)cc1 | 16
85 | CC(=O)Nc1ccc(C(=O)Nc2ccc3c(c2)N(C2CCCC2)C(=O)c2ccccc2S3)cc1 | 2.21
86 | COc1ccccc1-c1nc(NCc2cnc(C)cn2)c2ccccc2n1 | 10
87 | CC(C)(C)C(O)C(Oc1ccc(Cl)cc1)n1cncn1 (stereo not given) | > 30
88 | COc1ccc(C)cc1-n1nnnc1Sc1ncnc2scc(-c3ccc(Br)cc3)c12 | 2.1
89 | COc1ccc(OC)c(N2C(=O)C(Cl)=C(N3CCCCC3)C2=O)c1 | 1.5
90 | Cc1ccc(-n2nc3c(=O)n(CCCC(=O)NCc4ccccc4F)nc(C)c3c2C)cc1 | 2.6
91 | COc1cccc(CNCc2cccn2-c2nnc(N3CCN(c4ccccc4)CC3)s2)c1 | 2.06
92 | CCOC(=O)c1ccc(N2C(=O)c3n[nH]c(-c4cccs4)c3C2c2ccc(OCC)cc2)cc1 (stereo not given) | 5.72
93 | COc1cccc(CNc2ccc([S+](=O)([O-])Nc3cc4ccccc4s3)cc2)c1O | 3.5
94 | CN1C(=O)c2ccccc2[S@](=O)c2ccc(C(=O)NCCN3CCCC3)cc21 | > 30
95 | CC(C)(C)OC(=O)N[C@@H](Cc1ccc(OS(=O)(=O)c2cccc3cnccc23)cc1)C(=O)N1CCCN(C(=O)OC(C)(C)C)CC1 | 2
96 | CC(=O)c1c(C)[nH]c(C(=O)Nc2cccc([S+](=O)([O-])N3CCC(F)(F)CC3)c2)c1C | 2.4
97 | Cc1ccc(S(=O)(=O)Nc2cnccc2C(=O)Nc2nc(C(=O)O)cs2)cc1 | > 30
98 | CCOc1ccccc1N(CC(=O)Nc1cc(OC)ccc1OC)S(=O)(=O)c1ccccc1 | 1.38
99 | COc1ccnc(NC(=S)N2CCN(c3ncc(C(F)(F)F)cc3Cl)CC2)c1 | > 30
100 | COC(=O)c1ccc2nc(NC3=NC(c4[nH]ncc4Cl)C4=C(CCCC4=O)N3)oc2c1 (stereo not given) | 5.9
